Measured values reported in patent publication US7166590B2, “Amino acid derivatives” (Ono Pharmaceutical Co., Ltd., priority 1997, dated 2007).
Where a name gives a salt, the structure may show the parent alone.

biological target: T1, N-type calcium channel (Homo sapiens, UniProt Q00975); test: Determination of inhibitory activity on N-type calcium channel (Fura-2 calcium influx, KCl depolarization, with nifedipine); assay type: cell-based; conditions: compound at final concentration of 3 μM, depolarized by 80 mM potassium chloride, Fura-2 fluorescence, read-out: Inhibitory activity on Ca influx (%)
T1 construct: endogenous in cells
T1 sequence (Q00975 whole entry): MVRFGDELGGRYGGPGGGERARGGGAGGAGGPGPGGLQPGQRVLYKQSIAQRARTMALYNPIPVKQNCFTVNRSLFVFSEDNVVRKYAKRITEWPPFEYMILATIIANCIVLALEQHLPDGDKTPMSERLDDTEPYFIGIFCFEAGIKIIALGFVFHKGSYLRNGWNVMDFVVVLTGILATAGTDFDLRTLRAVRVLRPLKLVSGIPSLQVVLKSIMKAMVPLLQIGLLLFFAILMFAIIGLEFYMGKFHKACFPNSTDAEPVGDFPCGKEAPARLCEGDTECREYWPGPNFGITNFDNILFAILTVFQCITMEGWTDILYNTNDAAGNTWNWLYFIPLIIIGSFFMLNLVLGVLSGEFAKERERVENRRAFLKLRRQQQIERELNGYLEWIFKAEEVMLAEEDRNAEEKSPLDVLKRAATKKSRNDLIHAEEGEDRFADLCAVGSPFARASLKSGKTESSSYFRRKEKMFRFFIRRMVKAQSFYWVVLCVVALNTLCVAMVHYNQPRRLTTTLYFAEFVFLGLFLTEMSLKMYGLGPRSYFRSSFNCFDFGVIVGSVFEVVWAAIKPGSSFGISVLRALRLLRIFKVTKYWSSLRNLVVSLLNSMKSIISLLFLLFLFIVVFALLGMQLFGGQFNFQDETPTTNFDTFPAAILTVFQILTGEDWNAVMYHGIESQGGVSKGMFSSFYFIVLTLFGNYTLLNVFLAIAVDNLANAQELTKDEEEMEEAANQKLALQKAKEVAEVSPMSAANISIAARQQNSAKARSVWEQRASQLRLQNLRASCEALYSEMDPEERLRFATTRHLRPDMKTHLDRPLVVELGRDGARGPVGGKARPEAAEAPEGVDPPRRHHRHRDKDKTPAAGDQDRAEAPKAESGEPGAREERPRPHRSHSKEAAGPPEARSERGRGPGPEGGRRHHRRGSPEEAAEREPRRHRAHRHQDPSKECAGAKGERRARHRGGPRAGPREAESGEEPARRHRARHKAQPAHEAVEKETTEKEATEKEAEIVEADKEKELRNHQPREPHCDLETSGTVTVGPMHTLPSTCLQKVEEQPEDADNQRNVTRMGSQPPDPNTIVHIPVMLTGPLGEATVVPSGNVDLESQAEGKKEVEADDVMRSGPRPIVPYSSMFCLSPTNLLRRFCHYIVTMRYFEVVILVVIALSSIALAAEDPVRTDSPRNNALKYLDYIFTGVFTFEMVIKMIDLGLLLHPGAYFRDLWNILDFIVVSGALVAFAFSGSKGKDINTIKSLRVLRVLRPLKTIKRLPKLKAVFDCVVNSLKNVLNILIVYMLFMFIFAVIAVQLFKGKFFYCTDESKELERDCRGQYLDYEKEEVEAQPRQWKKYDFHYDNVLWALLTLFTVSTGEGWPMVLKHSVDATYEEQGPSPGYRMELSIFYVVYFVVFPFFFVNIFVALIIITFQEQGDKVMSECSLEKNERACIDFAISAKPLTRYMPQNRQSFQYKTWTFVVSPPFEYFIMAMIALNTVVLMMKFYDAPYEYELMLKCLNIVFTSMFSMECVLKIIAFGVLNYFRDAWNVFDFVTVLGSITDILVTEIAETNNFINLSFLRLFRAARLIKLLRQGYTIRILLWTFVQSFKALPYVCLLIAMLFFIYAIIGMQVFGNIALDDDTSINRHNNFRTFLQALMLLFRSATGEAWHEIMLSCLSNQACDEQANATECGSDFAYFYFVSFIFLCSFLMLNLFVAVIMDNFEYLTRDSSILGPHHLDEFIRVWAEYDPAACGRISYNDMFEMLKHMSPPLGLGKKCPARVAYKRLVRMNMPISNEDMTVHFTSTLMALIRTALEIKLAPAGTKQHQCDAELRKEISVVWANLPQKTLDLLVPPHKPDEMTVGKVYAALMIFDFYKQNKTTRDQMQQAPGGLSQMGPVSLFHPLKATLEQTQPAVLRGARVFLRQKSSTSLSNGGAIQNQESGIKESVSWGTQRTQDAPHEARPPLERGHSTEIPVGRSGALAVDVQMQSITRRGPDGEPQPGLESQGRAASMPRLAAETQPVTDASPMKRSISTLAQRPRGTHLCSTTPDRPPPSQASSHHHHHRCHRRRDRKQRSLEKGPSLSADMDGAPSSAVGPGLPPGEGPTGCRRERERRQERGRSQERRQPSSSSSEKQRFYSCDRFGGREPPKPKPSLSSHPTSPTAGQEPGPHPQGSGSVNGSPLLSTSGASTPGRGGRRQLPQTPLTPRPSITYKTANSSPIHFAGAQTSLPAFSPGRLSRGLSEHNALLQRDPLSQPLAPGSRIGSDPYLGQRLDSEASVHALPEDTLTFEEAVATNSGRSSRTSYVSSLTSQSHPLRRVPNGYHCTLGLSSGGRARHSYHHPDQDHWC
Protocol: Determination of Inhibitory Activity on N-Type Calcium Channel:
Cell line was differentiated according to the method described in FEBS Letters, 235, 178-182, 1988. The cell was loaded with fluorescent reagent, Fura-2•AM (at the final concentration of 10 μM), at 37° C. for 30 minutes and suspended in Krebs-buffer containing HEPES (25 mM) to obtain the cell suspension. The obtained cell suspension was incubated in the presence or absence of the compounds of the present invention with nifedipine for 5 minutes. The cell was depolarized by adding potassium chloride solution (at the final concentration of 80 mM) thereto and then a fluorescence intensity at the emission wavelength of 500 nm excited by the UV of 340 nm and 380 nm alternately was measured using the intracellular calcium analyzer (Nippon Bunko Co., CAF-110). The inhibitory activity of the compound of the present invention (at the final concentration of 3 μM) on calcium influx into the cell was calculated from the difference in changing the fluorescence intensity at peak (ΔR) according to the following equation. [formula]

Q: `CC(C)(C)OC(=O)N[C@@H](CCC(=O)OCc1ccc([N+](=O)[O-])cc1)C(=O)OC1CCCC1` [Example 2(29), (2S)-4-(4-nitrobenzyloxycarbonyl)-2-t-butoxycarbonylaminobutanoic acid.cyclopentyl ester] was tested. Which inhibition at 3 µM did it give?
A: 75%

Q: Which inhibition at 3 µM does the source give for `COc1ccc(CNC(=O)[C@H](CSCC2CCCCC2)NC(=O)OC(C)(C)C)cc1` [Example 2(80), (2R)-N-(4-methoxybenzyl)-3-cyclohexylmethylthio-2-t-butoxycarbonylamino-propanamide] here?
A: 87%

Q: Which inhibition at 3 µM does the source give for `CC(C)(C)OC(=O)N[C@@H](COCC1CCCCC1)C(=O)NCc1ccc([N+](=O)[O-])cc1` [Example 2(86), (2S)-N-(4-nitrobenzyl)-3-cyclohexylmethoxy-2-t-butoxycarbonylamino-propanamide] here?
A: 83%

Q: With `COc1ccc(CNC(=O)[C@H](COCC2CCCCC2)NS(=O)(=O)c2ccccc2)cc1` [Example 6(22), (2S)-N-(4-methoxybenzyl)-3-cyclohexylmethoxy-2-phenylsulfonylamino-propanamide] as the compound, how does the inhibition at 3 µM read?
A: 79%

Q: `COc1ccc(CNC(=O)[C@H](COCC2CCCCC2)NC(=O)C2CCCCC2)cc1` [Example 6(27), (2S)-N-(4-methoxybenzyl)-3-cyclohexylmethoxy-2-cyclohexylcarbonylamino-propanamide] was tested. Which inhibition at 3 µM did it give?
A: 72%

Q: How did the inhibition at 3 µM turn out when `COc1ccc(CNC(=O)[C@H](CSCC2CCCCC2)NC(=O)[C@@H]2CSCN2C(=O)OC(C)(C)C)cc1` [Example 6(44), (2R)-N-(4-methoxybenzyl)-3-cyclohexylmethylthio-2-((4R)-3-t-butoxycarbonyl-thiazolidin-4-ylcarbonylamino)propanamide] was run?
A: 86%

Q: How did the inhibition at 3 µM turn out when `CC(C)(C)OC(=O)N1CSC[C@H]1C(=O)N[C@@H](CSCC1CCCCC1)C(=O)NCc1ccc(Oc2ccccc2)cc1` [Example 6(68), (2R)-N-(4-penoxybenzyl)-3-cyclohexylmethylthio-2-((4R)-3-t-butoxycarbonyl-thiazolidin-4-ylcarbonylamino)propanamide] was run?
A: 73%

Q: With `O=C(N[C@@H](CSCC1CCCCC1)C(=O)NCc1ccc(Oc2ccccc2)cc1)[C@@H]1CSCN1` [Example 9(13), (2R)-N-(4-phenoxybenzyl)-3-cyclohexylmethylthio-2-((4R)-thiazolidin-4-ylcarbonylamino)propanamide.hydrochloride] as the compound, how does the inhibition at 3 µM read?
A: 88%

Q: How did the inhibition at 3 µM turn out when `COc1ccc(CNC(=O)[C@H](COCC2CCCCC2)NC(=O)OC(C)(C)C)cc1` [compound 2] was run?
A: 75%
